# Measurements reported in patent US20180368393A1, “PRE- AND POST-STORAGE STRESS RESPONSE CONDITIONING” (CPSI HOLDINGS LLC, priority 2017, published 2018).
# Entries after “also recorded” stand apart in the source; their conditions may differ. Where a SMILES comes first, the peptide text is derived from it. The star is where a group is joined. Cbz = O=C(OCc1ccccc1)*; CH2F = FC*
# Legend:
# human endothelial cells = assay: Human endothelial cell monolayer survival and repopulation following cryopreservation (Calcein-AM assay); assay type: cell-based; settings: for post-thaw viability: P/P conditioning, U10 and U5G10 CP solutions vs matched non-treated samples; for day 1 survival increase over non-treated samples: U10G10
# Description: A series of cryopreservation experiments was conducted on human endothelial and smooth muscle cell suspensions and monolayers to assess the performance of four (4) commercially available cryopreservation solutions: DP6, VS55, VS83, and M22, as well as nine (9) additional solutions: […] Eurocollins (EC) solution was included as a negative control, i.e., no cryoprotective agent (CPA) control, while media+10% DMSO ([…]) is a typical solution (10% DMSO) used in standard controlled rate cryopreservation protocols known to the skilled individual. Unisol is representative of the class of intracellular-like or intracellular-type solutions/media, whereas EC solution and culture media are representative of the class of extracellular-like or extracellular-type solutions/media. Other studies presented herein provide additional examples of intracellular- and extracellular-like solutions; other intracellular- and extracellular-like solutions are similarly useful and are known to those of skill in the art. FIG. 1 illustrates the results of an assessment of human endothelial cell survival following preservation. Monolayers of endothelial cells were frozen or vitrified and thawed in the indicated solutions (control, Uni, […], DP6, VS55, VS83, and […]). Following thawing, samples were diluted in culture media, placed into culture and assessed for viability at 1 day (24 hours) post-thaw and following seven (7) days of recovery using the Calcein-AM assay. […] The Uni and U10 conditions provided outcomes exceeding that of the VS55, VS83 and […] conditions. Therefore, subsequent studies (see, e.g., FIG. 2) focused on Unisol-based solutions with various CPAs and concentrations, in addition to the DP6 commercial cryopreservation solution. […] Monolayers of endothelial cells were frozen or vitrified and thawed in the indicated solutions. […] For pre-freeze (PF), post-warming (PW) and pre/post (P/P) conditioning studies, molecular modulation agents targeting inhibition of apoptosis (Caspase inhibitor IV, 8, 9 and a combination of Caspases 8 and 9), reduction of free-radical damage (resveratrol and NAC), and activation of the unfolded protein response (salubrinal) were employed as supplements in the media 1 hour prior to freezing (pre-freeze condition) or for 1 day following thawing and CPA removal from frozen samples (post-warming condition). Based on outcomes in the studies in Example 1, PF, PW and P/P conditioning were examined in Examples 2-3 using a series of Unisol-based solutions (Uni, U5, U10, U20, UG10, U5G10 and U10G10). […] Patent Application Publication No. US 2016/0097583 A1 (Ser. No. 14/876,087), which is incorporated by reference in its entirety as though fully set forth herein. The freeze and thaw process was slightly modified relative to the disclosure of U.S. Patent Application Publication No. US 2016/0097583 A1 by the addition of a 0.090 inch aluminum plate inserted into the bottom of the 96 well plate to aid in increasing cooling and heating uniformity throughout the plate, thereby reducing the well-to-well variability within the samples. The device was used to thaw the samples, which were frozen in situ in monolayers in standard 96-well tissue culture plates. […] A mitochondrial-mediated apoptotic inhibitor (Caspase 9) and a membrane-mediated apoptotic inhibitor (Caspase 8) were investigated to evaluate the involvement and impact of modulation of various apoptotic induction pathways. Additionally, a pan-Caspase inhibitor (Cas IV) was also investigated to assess the impact of global pathway modulation. As with the viability studies, cell survival and repopulation were assessed using Calcein-AM assays and analyzed using fluorescent microscopy (Zeiss). Survival was determined at 24 hours post-thaw to allow for the manifestation of any delayed onset cell death pathways to be executed. Further, cell recovery was included to evaluate the long term potency and repopulation potential of the various samples. […]
# [1] = tested on: human smooth muscle cells; assay: Human smooth muscle cell monolayer survival and repopulation following cryopreservation (Calcein-AM assay); assay type: cell-based
# Description: (§1) The device was used to thaw the samples, which were frozen in situ in monolayers in standard 96-well tissue culture plates. Samples were thawed from less than −170° C. to about 4° C. in the 96-well plate format in about 5 mins in a dry clean (“sterile”) environment.
# The study described in example 3.1 focuses on the collection of cell survival data and the impact of post-thaw conditioning on human smooth muscle cells (SMCs). Specific activities included application of the high throughput monolayer sample cryopreservation protocol and collection of data (survival and cell death) from samples frozen using 6 unique cryopreservation solutions (U5, U10, U20, U5G10, U10G10, DP6) and 6 unique modulators (resveratrol, salubrinal, caspase inhibitors (IV, 8, 9) and NAC). Survival was determined at 24 hours post-thaw to allow for the manifestation of any delayed onset cell death pathways to be executed. Further, cell recovery was included to evaluate the long term potency and repopulation potential of the various samples.
# A series of experiments was conducted to evaluate the performance of several solutions (U5, U10, U20, U5G10, U10G10 and DP6) as well as the impact of pre-freeze (PF) and post-warming (PW) conditioning with the apoptotic inhibitors Caspase 8, Caspase 9 and Caspase IV inhibitors. Cell samples were processed using the monolayer CP protocol and analyzed following 24 hours to 7 days post thaw for survival and recovery. These experiments were conducted to evaluate the impact of molecular modulators (inhibitors) during pre-freeze or post-thaw recovery on cell survival when added to the media 1 hour prior to or 24 hour following cryopreservation. […] To this end, samples were probed with Calcein-AM, incubated for 30 mins in the dark and then imaged using a Zeiss Axiovert 200 fluorescence microscope and Axiovision software. Images were taken at 24 hours to 7 days post-thaw to allow for assessment of solution and post-thaw conditioning agent performance.
# As in previous experiments, the 24 hour time point was used for initial survival assessment, as this time point allows for the manifestation of molecular based cell stress-induced death. This provides a more accurate measure of survival than 0 or 1 hour post-thaw assessment, as is typically used. The 3 day time point was selected to assess re-population potential of any surviving cells as an indicator of long term potency.
# For smooth muscle cell pre-freeze (PF) conditioning studies, 1 hour prior to CP addition, culture media was decanted and 100 μL of fresh media supplemented with caspase 8, 9, or IV was added to each respective well. Samples were then incubated at 37° C. for 1 hour, followed by media removal and addition of 100 μL of CP solution to samples followed by cryopreservation as described above. Following preservation, samples were thawed, diluted, and placed into culture. Following 24 hours recovery, cell viability was assessed.
# For smooth muscle cell post-warming (PW) conditioning studies, following thawing and cryopreservation, CP solution was removed or diluted with culture media supplemented with caspase 8, 9, or IV. FIG. 18 illustrates the impact of apoptotic inhibition post-freeze conditioning on human smooth muscle cell survival 1 day following cryopreservation with and without reduced CPA.
# For P/P conditioning studies, 1 hour prior to CP addition, culture media was decanted and 100 μL of fresh media supplement with caspase 8, 9, or IV was added to each respective well.
# [2] = tested on: endothelial and smooth muscle cells; assay: Summary of Examples 2-3: post-thaw survival of endothelial and smooth muscle cells (Calcein-AM assay); assay type: cell-based, human
# Description: For pre-freeze (PF), post-warming (PW) and pre/post (P/P) conditioning studies, molecular modulation agents targeting inhibition of apoptosis (Caspase inhibitor IV, 8, 9 and a combination of Caspases 8 and 9), reduction of free-radical damage (resveratrol and NAC), and activation of the unfolded protein response (salubrinal) were employed as supplements in the media 1 hour prior to freezing (pre-freeze condition) or for 1 day following thawing and CPA removal from frozen samples (post-warming condition).
# as §1
# The P/P regime was followed by PW using Caspase 8 inhibition or NAC inhibition.
# [3] = tested on: human hematopoietic stem cells (hHSC); assay: Human hematopoietic stem cell survival following cryopreservation (Calcein-AM assay); assay type: cell-based; settings: cryopreserved in DMSO 10%
# Description: The studies described in example 4 focus on the collection of cell survival data and the impact of post-thaw conditioning on human stem cells (hHSCs). Specific activities included standard cryopreservation protocol and collection of data (survival and cell death) from samples frozen using 6 unique cryopreservation solutions (Media, M5, M10, Unisol, U5 and U10) and 4 unique modulators (resveratrol (OSI), salubrinal (UPRI), caspase inhibitor (AI) and NAC). Survival was determined at 24 hours post-thaw to allow for the manifestation of any delayed onset cell death pathways to be executed. […]
# A series of experiments was conducted to evaluate the performance of several solutions (media, M5, M10, Unisol, U5, and U10) as well as the impact of post-warming (PW) conditioning with the molecular modulators. Cell samples were processed using a standard controlled rate cooling suspension protocol and analyzed following 24 hours to 7 days post thaw for survival and recovery. […] To this end, samples were probed with Calcein-AM, incubated for 30 mins in the dark and then imaged using a Zeiss Axiovert 200 fluorescence microscope and Axiovision software. […]
# For hHSC post-warming (PW) conditioning studies, following thawing each sample was diluted with culture media supplemented with the respective molecular modulator added to the dilution media. Samples were incubated in culture for 24 hours, then assessed. […]
# [4] = PF conditioning, U10, U20, U5G10 and U10G10
# [5] = P/P conditioning, vs non-conditioned samples
# [6] = PF and PW caspase inhibitor conditioning, U10G10 solution
structure (smiles),measurement,setting,value
Oc1ccc(C=Cc2cc(O)cc(O)c2)cc1 [resveratrol],post-thaw viability,human endothelial cells,increase in post-thaw viability
same,day 1 survival increase over non-treated samples,human endothelial cells; PF conditioning 1 hour,~2 fold
same,day 1 cell survival,human endothelial cells; [4],Improvement
same,day 1 survival increase over non-treated samples,human endothelial cells; PW conditioning 24 hours,~2 fold
same,day 1 cell survival,[1]; [5],slight to no improvement in cell survival
CC[C@H](C)[C@H](NC(=O)OCc1ccccc1)C(=O)N[C@@H](CCC(=O)OC)C(=O)N[C@H](C(=O)N[C@@H](CC(=O)OC)C(=O)CF)[C@@H](C)O [Caspase 8 inhibitor] (Cbz-IE(OMe)TD(OMe)-CH2F),day 1 cell survival / post-thaw viability,"human endothelial cells; P/P caspase inhibitor conditioning, Unisol+CPA samples vs non-treated matched samples",improvement in cell survival
same,cell repopulation / day 3 recovery,"human endothelial cells; P/P caspase inhibitor conditioning, Unisol+CPA solutions and DP6",most beneficial; also recorded: marked improvement in all solutions in day 3 recovery
same,cell recovery and repopulation (overall),human endothelial cells; [6],improvement in cell recovery and repopulation
same,recovery at 3 days post-thaw,"human endothelial cells; PF caspase inhibitor conditioning, Unisol+CPA conditions",improvement in recovery
same,day 3 recovery,"human endothelial cells; PW caspase inhibitor conditioning, U10, U20 and U5G10 vs non-treated",marked improvement in day 3 recovery
same,cell recovery 3 days post-thaw,"human endothelial cells; PW caspase inhibitor conditioning, Unisol+CPA conditions",improvement in cell recovery
same,day 1 cell survival,"human endothelial cells; post-warming (PW) caspase inhibitor conditioning 24 hours, Unisol+CPA solutions, vs non-treated matched samples",overall increase in cell survival
same,day 1 cell survival,"human endothelial cells; post-warming (PW) caspase inhibitor conditioning 24 hours, Unisol+CPA solutions, vs non-treated matched samples, listed as Caspase 8",slight improvement in cell survival
same,cell survival,"human endothelial cells; pre/post (P/P) caspase inhibitor conditioning, U10G10 solution, day 1",~90%
same,increase over non-treated U10G10 samples,"[1]; P/P caspase inhibitor conditioning, U10G10, day 1 survival",~50%
same,"day 1 survival, % of controls","[1]; P/P caspase inhibitor conditioning, U10G10, listed as Caspase 8",~60%
same,"day 1 survival, % of controls","[1]; P/P caspase inhibitor conditioning, U10G10, listed as caspase 8",about 70%
same,"day 1 survival, % of controls","[1]; P/P caspase inhibitor conditioning, U10G10, listed as caspase 8 inhibitor",~70%
same,cell repopulation / day 3 recovery,"[1]; P/P caspase inhibitor conditioning, Unisol+CPA conditions and DP6",marked improvement in day 3 recovery
same,smooth muscle cell recovery and repopulation (overall),[1]; [6],improvement in smooth muscle cell recovery and repopulation
same,recovery at 3 days post-thaw,[1]; PW caspase inhibitor conditioning,complete recovery of the samples to pre-freeze controls
same,day 1 cell survival,"[1]; PW caspase inhibitor conditioning, Unisol+CPA solutions",slight increase in cell survival
same,day 1 post-thaw cell survival and cell recovery,"[2]; PF, PW and P/P conditioning, Unisol based solutions",improved
same,increase in cell survival over non-treated samples,[2]; PW conditioning,~50%
same,increase in survival over non-treated samples,"[2]; U10G10, P/P conditioning, day 1",> 2 fold
"C[S+](C)[O-] [DMSO, dimethyl sulfoxide]",cell loss rates,[3],greater than 50%
O=C(/C=C/c1ccccc1)NC(NC(=S)Nc1cccc2cccnc12)C(Cl)(Cl)Cl (stereo not drawn) [salubrinal],post-thaw viability,human endothelial cells,increase in post-thaw viability
same,day 1 cell survival,human endothelial cells; [4],Improvement
same,day 1 cell survival,[1]; [5],slight to no improvement in cell survival
same,day 1 cell survival,"[1]; PW conditioning, vs non-treated matched samples",minimal benefit
